Results as given in ChEMBL document CHEMBL4715697, “Synthesis and biological activity of benzamide DNA minor groove binders” (2016).

Assays:
Type in all cases: functional
OVCAR-5 [1] = test: Growth inhibition of human OVCAR-5 cells assessed as cell growth at 1 uM incubated for 48 hrs by sulforhodamine B assay relative to control; conditions: read-out: Activity
PC-3 = test: Growth inhibition of human PC-3 cells incubated for 48 hrs by sulforhodamine B assay
OVCAR-5 [2] = test: Growth inhibition of human OVCAR-5 cells incubated for 48 hrs by sulforhodamine B assay
SF-268 [3] = test: Growth inhibition of human SF-268 cells incubated for 48 hrs by sulforhodamine B assay
ACHN [4] = test: Growth inhibition of human ACHN cells incubated for 48 hrs by sulforhodamine B assay
RPMI-8226 = test: Growth inhibition of human RPMI-8226 cells assessed as cell growth at 0.1 uM incubated for 48 hrs by sulforhodamine B assay relative to control; conditions: read-out: Activity
UACC-62 = test: Growth inhibition of human UACC-62 cells assessed as cell growth at 0.01 uM incubated for 48 hrs by sulforhodamine B assay relative to control; conditions: read-out: Activity
MDA-MB-231 = test: Growth inhibition of human MDA-MB-231 cells assessed as cell growth at 0.01 uM incubated for 48 hrs by sulforhodamine B assay relative to control; conditions: read-out: Activity
ACHN [5] = test: Growth inhibition of human ACHN cells assessed as cell growth at 100 uM incubated for 48 hrs by sulforhodamine B assay relative to control; conditions: read-out: Activity
IGROV-1 [6] = test: Growth inhibition of human IGROV-1 cells incubated for 48 hrs by sulforhodamine B assay
HCC 2998 [7] = test: Growth inhibition of human HCC 2998 cells assessed as cell growth at 1 uM incubated for 48 hrs by sulforhodamine B assay relative to control; conditions: read-out: Activity
CAKI-1 [8] = test: Growth inhibition of human CAKI-1 cells assessed as cell growth at 100 uM incubated for 48 hrs by sulforhodamine B assay relative to control; conditions: read-out: Activity
HOP-62 [9] = test: Growth inhibition of human HOP-62 cells assessed as cell growth at 1 uM incubated for 48 hrs by sulforhodamine B assay relative to control; conditions: read-out: Activity
OVCAR-8 = test: Growth inhibition of human OVCAR-8 cells assessed as cell growth at 0.1 uM incubated for 48 hrs by sulforhodamine B assay relative to control; conditions: read-out: Activity
U-251 = test: Growth inhibition of human U-251 cells assessed as cell growth at 100 uM incubated for 48 hrs by sulforhodamine B assay relative to control; conditions: read-out: Activity
HCC 2998 [10] = test: Growth inhibition of human HCC 2998 cells incubated for 48 hrs by sulforhodamine B assay
HOP-62 [11] = test: Growth inhibition of human HOP-62 cells assessed as cell growth at 100 uM incubated for 48 hrs by sulforhodamine B assay relative to control; conditions: read-out: Activity
UACC-257 = test: Growth inhibition of human UACC-257 cells assessed as cell growth at 100 uM incubated for 48 hrs by sulforhodamine B assay relative to control; conditions: read-out: Activity
M14 = test: Growth inhibition of human M14 cells assessed as cell growth at 0.1 uM incubated for 48 hrs by sulforhodamine B assay relative to control; conditions: read-out: Activity
NCI/ADR-RES = test: Growth inhibition of human NCI/ADR-RES cells assessed as cell growth at 0.1 uM incubated for 48 hrs by sulforhodamine B assay relative to control; conditions: read-out: Activity
BT-549 = test: Growth inhibition of human BT-549 cells assessed as cell growth at 0.01 uM incubated for 48 hrs by sulforhodamine B assay relative to control; conditions: read-out: Activity
COLO 205 = test: Growth inhibition of human COLO 205 cells assessed as cell growth at 0.01 uM incubated for 48 hrs by sulforhodamine B assay relative to control; conditions: read-out: Activity
Hs-578T = test: Growth inhibition of human Hs-578T cells incubated for 48 hrs by sulforhodamine B assay
NCI-H522 = test: Growth inhibition of human NCI-H522 cells assessed as cell growth at 0.01 uM incubated for 48 hrs by sulforhodamine B assay relative to control; conditions: read-out: Activity
NCI-H23 = test: Growth inhibition of human NCI-H23 cells assessed as cell growth at 100 uM incubated for 48 hrs by sulforhodamine B assay relative to control; conditions: read-out: Activity
CAKI-1 [12] = test: Growth inhibition of human CAKI-1 cells incubated for 48 hrs by sulforhodamine B assay
OVCAR-5 [13] = test: Growth inhibition of human OVCAR-5 cells assessed as cell growth at 0.01 uM incubated for 48 hrs by sulforhodamine B assay relative to control; conditions: read-out: Activity
CCRF-CEM [14] = test: Growth inhibition of human CCRF-CEM cells assessed as cell growth at 0.01 uM incubated for 48 hrs by sulforhodamine B assay relative to control; conditions: read-out: Activity
MCF7 = test: Growth inhibition of human MCF7 cells assessed as cell growth at 1 uM incubated for 48 hrs by sulforhodamine B assay relative to control; conditions: read-out: Activity
IGROV-1 [15] = test: Growth inhibition of human IGROV-1 cells assessed as cell growth at 0.1 uM incubated for 48 hrs by sulforhodamine B assay relative to control; conditions: read-out: Activity
CCRF-CEM [16] = test: Growth inhibition of human CCRF-CEM cells assessed as cell growth at 100 uM incubated for 48 hrs by sulforhodamine B assay relative to control; conditions: read-out: Activity
SK-MEL-28 = test: Growth inhibition of human SK-MEL-28 cells assessed as cell growth at 0.1 uM incubated for 48 hrs by sulforhodamine B assay relative to control; conditions: read-out: Activity
SF-268 [17] = test: Growth inhibition of human SF-268 cells assessed as cell growth at 1 uM incubated for 48 hrs by sulforhodamine B assay relative to control; conditions: read-out: Activity
[18] = read-out: LC50 (the source's name)
[19] = read-out: pLC50 (the source's name) (converted)

CC(=O)Nc1cc(CCl)cc(NC(=O)c2ccc(C(=O)Nc3cccc(NC(=O)CCCN(C)C)c3)cc2)c1
-70%: growth at 100 µM (CCRF-CEM [16])
79%: growth at 100 µM (NCI-H23)
95%: growth at 100 µM (U-251) | growth at 100 µM (HOP-62 [11])
97%: growth at 0.1 µM (OVCAR-8)
102%: growth at 1 µM (HOP-62 [9]) | growth at 0.1 µM (M14)
112%: growth at 0.01 µM (COLO 205)
113%: growth at 0.1 µM (RPMI-8226) | growth at 0.1 µM (IGROV-1 [15])
103%: growth at 0.01 µM (MDA-MB-231)
105%: growth at 100 µM (UACC-257)
> 100 µM: GI50 (PC-3; read-out: GI50) | CC50 (PC-3; [18]) | TGI (PC-3; read-out: TGI) | GI50 (PC-3; read-out: pGI50 (converted)) | CC50 (PC-3; [19]) | TGI (PC-3; read-out: pTGI) | GI50 (OVCAR-5 [2]; read-out: GI50) | LC50 (OVCAR-5 [2]; read-out: LC50) | TGI (OVCAR-5 [2]; read-out: TGI) | GI50 (OVCAR-5 [2]; read-out: pGI50 (converted)) | LC50 (OVCAR-5 [2]; read-out: pLC50 (converted)) | TGI (OVCAR-5 [2]; read-out: pTGI) | GI50 (SF-268 [3]; read-out: GI50) | LC50 (SF-268 [3]; read-out: LC50) | TGI (SF-268 [3]; read-out: TGI) | GI50 (SF-268 [3]; read-out: pGI50 (converted)) | LC50 (SF-268 [3]; read-out: pLC50 (converted)) | TGI (SF-268 [3]; read-out: pTGI) | GI50 (ACHN [4]; read-out: GI50) | CC50 (ACHN [4]; [18]) | TGI (ACHN [4]; read-out: TGI) | GI50 (ACHN [4]; read-out: pGI50 (converted)) | CC50 (ACHN [4]; [19]) | TGI (ACHN [4]; read-out: pTGI) | GI50 (IGROV-1 [6]; read-out: GI50) | CC50 (IGROV-1 [6]; [18]) | TGI (IGROV-1 [6]; read-out: TGI) | GI50 (IGROV-1 [6]; read-out: pGI50 (converted)) | CC50 (IGROV-1 [6]; [19]) | TGI (IGROV-1 [6]; read-out: pTGI) | GI50 (HCC 2998 [10]; read-out: GI50) | CC50 (HCC 2998 [10]; [18]) | TGI (HCC 2998 [10]; read-out: TGI) | GI50 (HCC 2998 [10]; read-out: pGI50 (converted)) | CC50 (HCC 2998 [10]; [19]) | TGI (HCC 2998 [10]; read-out: pTGI) | GI50 (Hs-578T; read-out: GI50) | CC50 (Hs-578T; [18]) | TGI (Hs-578T; read-out: TGI) | GI50 (Hs-578T; read-out: pGI50 (converted)) | CC50 (Hs-578T; [19]) | TGI (Hs-578T; read-out: pTGI) | GI50 (CAKI-1 [12]; read-out: GI50) | CC50 (CAKI-1 [12]; [18]) | TGI (CAKI-1 [12]; read-out: TGI) | GI50 (CAKI-1 [12]; read-out: pGI50 (converted)) | CC50 (CAKI-1 [12]; [19]) | TGI (CAKI-1 [12]; read-out: pTGI)
91%: growth at 0.1 µM (SK-MEL-28)
83%: growth at 1 µM (OVCAR-5 [1])
107%: growth at 0.01 µM (CCRF-CEM [14])
98%: growth at 0.1 µM (NCI/ADR-RES)
81%: growth at 1 µM (MCF7)
101%: growth at 1 µM (SF-268 [17])
104%: growth at 100 µM (ACHN [5]) | growth at 0.01 µM (BT-549)
92%: growth at 0.01 µM (OVCAR-5 [13])
100%: growth at 0.01 µM (UACC-62) | growth at 100 µM (CAKI-1 [8])
96%: growth at 1 µM (HCC 2998 [7]) | growth at 0.01 µM (NCI-H522)
